Measured values from patent publication US20010018452A1 (published 2001).

Row | melting point | SMILES
1 | 82 to 84 °C | CON=C(C(=O)OC)c1cc(C)c(C)cc1COc1ccccc1C
2 | 129 to 134 °C | CNC(=O)C(=NOC)c1cc(C)c(C)cc1C(ON)=C(C)c1cccc(C(F)(F)F)c1
